Measurements published in publication PMC9374667 (Communications Biology, 2022).
Where “and” joins values, the source holds several entries; their conditions need not be identical. Equal entries are not always repeated.

Columns and labels:
TBK1 = test: RT-qPCR of Tbk1 in eWAT and BAT; format: in vivo; settings: db/db mice, both doses of BJ
Description: Total RNA was isolated from 3T3-L1 cells and adipose tissue homogenates using Trizol reagent (Invitrogen, Carlsbad, CA, USA). RNA concentration and purity were examined at 260/280 nm using a nanodrop spectrophotometer (NanoDrop One, Thermo Fisher Scientific, USA). The total RNA was reverse transcribed to cDNA using the EasyScript All-in-One First-Strand cDNA Synthesis SuperMix for qPCR kit (TransGen Biotech, Beijing, China). The quantitative reverse transcription polymerase chain reaction was performed using TransStart Top Green qPCR SuperMix (TransGen Biotech, Beijing, China) and an Applied Biosystems 7500 RealTime PCR System (Life Technologies, USA). Relative expression levels were normalized to gapdh expression and quantified using the 2^-ΔΔCt method. The primers were synthesized by Shanghai Sangon Biotech, and the detailed primer sequences were shown in Supplementary Table 5 in the supplementary materials.

IKKε = biological target: T1, IKKε (Mus musculus, UniProt Q9R0T8); test: IKKε activity assay in BAT; format: in vivo, mice; set-up: The adipose tissue was ultrasound-crushed in PBS buffer solution (1:9 w/v) to prepare the tissue homogenate; from tissue; host or cells: epididymal white adipose tissue (eWAT) and brown adipose tissue (BAT) of C57BLKS WT and db/db mice; settings: for the expression of IKKε in BAT of db/db mice: Figure 6l, individual values
T1 sequence (Q9R0T8 1-717): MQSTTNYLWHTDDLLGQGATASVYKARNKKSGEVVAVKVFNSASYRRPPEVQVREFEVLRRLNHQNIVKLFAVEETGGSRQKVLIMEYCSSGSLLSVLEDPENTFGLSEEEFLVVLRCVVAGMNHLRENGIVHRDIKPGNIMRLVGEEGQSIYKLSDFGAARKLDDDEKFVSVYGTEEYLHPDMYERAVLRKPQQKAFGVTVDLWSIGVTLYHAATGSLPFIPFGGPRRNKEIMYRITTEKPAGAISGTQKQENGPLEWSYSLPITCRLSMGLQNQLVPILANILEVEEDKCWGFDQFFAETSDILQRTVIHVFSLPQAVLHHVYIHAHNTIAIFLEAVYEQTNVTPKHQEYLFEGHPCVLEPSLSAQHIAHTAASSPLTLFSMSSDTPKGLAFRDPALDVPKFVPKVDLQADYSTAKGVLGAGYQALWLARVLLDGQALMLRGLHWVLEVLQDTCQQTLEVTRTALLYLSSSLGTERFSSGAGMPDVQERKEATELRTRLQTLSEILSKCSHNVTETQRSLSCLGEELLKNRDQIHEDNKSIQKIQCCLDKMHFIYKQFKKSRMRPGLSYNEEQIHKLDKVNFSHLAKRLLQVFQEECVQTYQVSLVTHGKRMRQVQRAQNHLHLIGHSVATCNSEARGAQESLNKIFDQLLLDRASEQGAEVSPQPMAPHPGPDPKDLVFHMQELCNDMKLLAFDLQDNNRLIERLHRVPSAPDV
Procedure: The adipose tissue was ultrasound-crushed in PBS buffer solution (1:9 w/v) to prepare the tissue homogenate. The tissue homogenate was centrifuged at 5000 × g for 10 min, and the supernatant was taken for detection. Briefly, samples or standards were added to the microplates pre-coated with IKKε antibody or TBK1 antibody. Then horseradish peroxidase (HRP) labeled antibody was added and incubated at 37 °C for 60 min. After thorough washing, the 3,3′,5,5′-tetramethylbenzidine (TMB) substrate was used for color development, and the absorbance (OD value) was determined at 450 nm.

CC(C)Cc1ccc(C(C)C(=O)[O-])cc1.COc1ccc2cc3[n+](cc2c1OC)CCc1cc2c(cc1-3)OCO2.O.O.O.O [BJ, berberine-ibuprofen]
Tbk1 mRNA expression in BAT (TBK1): had no effect | mRNA level of TBK1 (Tbk1) in eWAT (TBK1): significantly reduced | the expression of IKKε in BAT of db/db mice (IKKε; db/db+BJ 75mg/kg): 0.441 U/g and 0.458 U/g and 0.427 U/g and 0.409 U/g and 0.371 U/g and 0.436 U/g | the expression of IKKε in BAT of db/db mice (IKKε; db/db+BJ 150mg/kg): 0.429 U/g and 0.4 U/g and 0.314 U/g and 0.335 U/g and 0.348 U/g and 0.398 U/g | IKKε activity and expression levels in BAT (IKKε; db/db mice, both doses of BJ): had no effect
